These results are taken from patent US8076377B2, “N,N-dimethyl imidodicarbonimidic diamide dicarboxylate, method for producing the same and pharmaceutical compositions comprising the same” (Hanall Pharmaceutical Company, Ltd., priority 2007, dated 2011).

Where a name gives a salt, the structure may show the parent alone.

The subject of series [1] is rabbit. Conditions: oral; cited from earlier work.
The conditions of series [2]: pH at saturation.
Series [3] deals with hyperlipidemia-induced rats. As to the kind of experiment: Effect on blood lipid, oral administration for 1 week to hyperlipidemia-induced rats (blood biochemical tests). Particulars: 500 mg/kg oral for 1 week, average ± standard deviation.
Series [4] in a line: Water content with Karl-Fisher moisture meter after exposure to temperature/relative humidity (hygroscopicity, hydrate stability).
Series [5] has as its system rat. Particulars: oral; cited from earlier work.

With `Cl` [Hydrochloric acid], the “LD50 (50% lethal dose)” value in series [1] is on record as “LD50 900 mg/kg”.
For the molecule `CN(C)C(=N)N=C(N)N.O=C(O)CCCC(=O)O` [Metformin glutarate, metformin (2:1) glutarate], the “Saturation pH” value in series [2] was determined as 10.200.
Consider `CN(C)C(=N)N=C(N)N` [Metformin hydrochloride, metformin hydrochloride, reference compound], for which the “Saturation pH” value in series [2] is 2.892. Also, in series [3], the ALT is 49.8 ± 4.8 IU/L, the AST is given as 126.9 ± 8.4 IU/L, the BUN is 13.6 ± 0.4 mg/dL and the “CHO (Cholesterol)” value turned out to be 277.1 ± 21.8 mg/dL. For the same molecule, in series [3], the CRE is 0.5 ± 0.0 mg/dL, the HDL was 42.5 ± 1.0 mg/dL, the LDL is 198.3 ± 18.5 mg/dL and the “TG (Triglyceride)” value worked out at 37.3 ± 1.5 mg/dL. In series [4] (40° C., 75% R.H., day 0), this molecule came in with a water content of 0.080 wt %. This molecule came in with a water content in series [4] (40° C., 75% R.H., day 1) of 0.069 wt %. For the same molecule, in series [4] (40° C., 75% R.H., day 2), the water content stood at 0.053 wt %. In addition, the water content in series [4] (40° C., 75% R.H., day 5) was 0.054 wt %. In series [4] (60° C., 15% R.H., day 0), this molecule returned a water content of 0.080 wt %. For the same molecule, in series [4] (60° C., 15% R.H., day 1), the water content was found to be 0.044 wt %. In addition, the water content in series [4] (60° C., 15% R.H., day 2) is listed as 0.047 wt %. Besides, the water content in series [4] (60° C., 15% R.H., day 5) was 0.056 wt %.
For the molecule `CN(C)C(=N)NC(=N)N` [Metformin malate, metformin (2:1) malate], the “Saturation pH” value in series [2] was found to be 3.950.
On to `O=C(O)CCCC(=O)O` [glutaric acid], for which the “LD50 (50% lethal dose)” value in series [5] was “LD50 6000 mg/kg”.
Consider “metformin (2:1) malonate [Metformin malonate]”, for which the ALT in series [3] was found to be 49.0 ± 7.0 IU/L. The AST in series [3] is 136.6 ± 11.6 IU/L. In series [3], the BUN turned out to be 15.3 ± 0.9 mg/dL. Besides, the “CHO (Cholesterol)” value in series [3] is 238.2 ± 16.4 mg/dL. This molecule returned a CRE in series [3] of 0.5 ± 0.0 mg/dL. Further, in series [3], the HDL was 40.4 ± 1.4 mg/dL. Also, the LDL in series [3] is 168.3 ± 13.7 mg/dL. For the same molecule, in series [3], the “TG (Triglyceride)” value came out at 50.3 ± 7.9 mg/dL. In addition, the water content in series [4] (40° C., 75% R.H., day 0) was determined as 5.143 wt %; in series [4] (40° C., 75% R.H., day 1), 5.403 wt %; in series [4] (40° C., 75% R.H., day 2) it was 5.288 wt %; in series [4] (40° C., 75% R.H., day 5) it was 5.376 wt %; in series [4] (60° C., 15% R.H., day 0), 5.143 wt %; in series [4] (60° C., 15% R.H., day 1), 5.222 wt %. The water content came to 5.219 wt % in series [4] (60° C., 15% R.H., day 2) and 5.184 wt % in series [4] (60° C., 15% R.H., day 5).
